Source: patent US20150257378A1, “PHEROMONE ATTRACTANTS FOR TAWNY CRAZY ANTS” (STERLING INTERNATIONAL INC., priority 2014, published 2015)

What was measured:
[1] = system: workers of the red imported fire ants; details: contact/fumigation; cited from earlier work
N. fulva workers = experiment: Field trapping experiments with baited sticky traps; format: in vivo, Nylanderia fulva; details: for attraction compared with blank control: Exp. 8, full factorial design, n-undecane 6-7 mg/day, 2-tridecanone 1 mg/day, formic acid 27-30 mg/d, three days
Description: Nine field trapping experiments were carried out in an old oak woodland with sandy soil and low grass understory at La Marque, Tex., USA (29° 21′23.73″N; 95° 0′9.47″W), using Terro® “Spider & Insect Traps” (sticky traps; Woodstream Corporation, Lititz, Pa.) or Rescue!® crawling insect sticky traps (described, for example in U.S. Application Publication No. 2013/0318860 A1, herein incorporated by reference in its entirety). All the tested dispensers were placed in the center of sticky surface on the bottom of the trap. An unbaited sticky trap was included in each experiment block for all the experiments as a blank control.
Experiments 1 and 2 were conducted simultaneously in summer. Exp. 1 tested two synthetic Dufour's gland pheromone candidate mixtures identified from N. fulva workers (treatment “A”: a mix of eight compounds at near natural ratios from workers: n-undecane, 2-tridecanone, n-decane, 1-undecene, n-tridecane, 2-dodecanone, 2-tetradecanone, 2-pentadecanone; 41:53:1.2:0.5:1:2:0.3:1) and queens (treatment “B”: a mix of four compounds at near natural ratios: n-undecane, 2-tridecanone, n-tridecane and 2-pentadecanone; 54:40:1:5) plus a synthetic binary blend of the two major components (undecane and 2-tridecanone at 50:50 ratio) identified from both workers and queens (treatment “C”) (Table in FIG. 3) using centrifuge tube dispensers with low loading (30 mg each mixture on a small cotton ball inside an open cap 2-ml centrifuge dispenser) at about 2 mg/day (mg/d) release in a randomized block design (6 blocks) using Terro® “Spider & Insect Traps”. Traps were placed on the ground in lines with 2 meters (m) between traps within each set, 3 m between trap sets. […] Experiment 2 was distanced about 15 m away from Exp. 1. The tawny crazy ant population level at the testing site was relatively high and ubiquitous throughout the landscape, as the tawny crazy ant population was actively foraging over the entire surface of the woodland understory and up every tree. The weather was sunny with a mean daily temperature of 28.6° C.
Experiments 3 and 4 were conducted simultaneously in the fall. Exp. 3 tested two synthetic Dufour's gland pheromone candidate mixtures mimicking the N. fulva workers (treatment “A”: a mix of eight compounds; 100 mg loading) and queens (treatment “B”: a mix of four compounds; 100 mg loading) using centrifuge dispensers (with one small cotton ball in each) with low release rate (ca. 2 mg/d), one positive control (treatment “C”: yellow plastic cap loaded with 1 g of Advance® Granular Carpenter Ant Bait, BASF Corporation, NJ, USA), plus a blank control (“D”), in a randomized block design (6 blocks/sets) using the Rescue!® crawling insect sticky traps. Same as in Exp. 1-2, the traps were placed were placed on the ground in lines with 2 m between traps within each set, 3 m between trap sets. […] Exp. 4 was distanced 20 m from Exp. 3. The weather was sunny with a mean daily temperature of 23.4° C. for days 1 and 2. On Day 3 the weather was overcast with a mean daily temperature of 25.3° C. and 0.97 cm of rainfall.
Experiments 5 and 6 were conducted simultaneously in late fall. Exp. 5 tested potential attraction of N. fulva workers to a synthetic mixture mimicking the full blend of N. fulva worker Dufour's gland pheromone (treatment “A”: a mix of eight compounds; 100 mg mixed with 400 μl canola oil (CO) from a stickpack dispenser; 8-12 mg/d), a synthetic pheromone candidate of N. fulva poison gland, formic acid (FA) (treatment “B”; 438 mg FA mixed with 812 mg of polyurethane inside an open 2-ml centrifuge tube; at 27-30 mg/d release) and their combination (treatment “C”) plus a blank control (“D”) in a randomized block design (6 blocks/sets) using the Rescue!® crawling insect sticky traps. Traps were again placed on the ground in lines with 2 m between traps within each set, 3 m between trap sets.

[2] = system: Argentine ant (Linepithema humile) workers; details: mixed with the baits; cited from earlier work
L. humile workers = details: mixed in insecticide sprays; cited from earlier work

| SMILES | toxicity to fire ant workers [1] | attraction compared with blank control (N. fulva workers) | effect on consumption of sugar-based liquid baits by ant workers [2] | effect on killing efficacy of insecticides (L. humile workers) | significance of difference from blank control (N. fulva workers; Exp. 5, late fall, low temperature and rain) | N. fulva workers caught compared with blank control (in words) (N. fulva workers; Exp. 5, late fall, low temperature and rain, mix of 8 at 8-12 mg/d, formic acid at 27-30 mg/d) | attraction of N. fulva workers (N. fulva workers; Exp. 7, summer, high ant populations, mix of 8 at 8-12 mg/d, formic acid at 27-30 mg/d) | attraction of tawny crazy ant workers (N. fulva workers; Exp. 9, fall, n-undecane from stickpack at 9-11 mg/d) |
| --- | --- | --- | --- | --- | --- | --- | --- | --- |
| CCCCCCCCCCCC(C)=O [2-tridecanone] | strong contact/fumigation toxicity | not different from the blank control | – | – | – | – | – | – |
| CCCCCC/C=C\CCCCCCCC=O [Z-9-hexadecenal] | – | – | increase the consumption | increase the killing efficacy | – | – | – | – |
| O=CO [formic acid] | strong contact/fumigation toxicity | not different from the blank control | – | – | no significant differences | twice as many | inactive | – |
| CCCCCCCCCCC [n-undecane] | strong contact/fumigation toxicity | significantly attractive | – | – | – | – | – | weakly, but significantly attractive |
